# Source: patent US6207709A, “N-substituted-2-amino-4-phenyl-4-oxo-butanoic acid compounds having kynurenine-3-hydroxy base inhibitory activity” (Pharmacia & Upjohn S.p.A., priority 1996, dated 2001)
# What was measured:
# kynurenine-3-hydroxylase = biological target: T1, kynurenine-3-hydroxylase (Rattus norvegicus, UniProt O88867); experiment: Kynurenine-3-hydroxylase assay in the rat brain (homogenate); type: biochemical; conditions: L-kynurenine 50 μM, 60 min incubation, pH 7.5, read-out: IC 50, enzyme inhibition (rat brain)
# T1 construct: evaluated in rat brain homogenate; from tissue; host or cells: rat brain homogenate (washed 12000 x g pellet)
# Method: (A) Kynurenine-3-hydroxylase assay in the rat brain
# Brain was homogenized in ice-cold 0.32 M sucrose and centrifuged at 12000×g for 30 min at 4° C. The pellet was washed three times with 0.32 M sucrose by centrifugation and suspended in 0.14 M KCl in 20 mM K-phosphate buffer at pH 7 (1 g tissue in 2 ml buffer).
# The reaction mixture contained: 75 μl of suspended homogenate; 100 μl of substrate solution containing 50 mM K-phosphate buffer pH 7.5, 2 mM MgCl2, 0.4 mM NADPH and 50 μM L-kynurenine (final concentration): 25 μl of different concentrations of inhibitor solutions). The reaction was stopped by addition of 200 μl of 1 M HClO4 after 60 min incubation. L-3-hydroxykynurenine formed was quantified by HPLC with coulometric detection at a working voltage of +0.2 V. The column was a 10 cm C18 reversed phase (3 μm. The mobile phase consisted of 950 ml distilled water, 20 ml acetonitrile, 9 ml triethylamine, 5.9 ml phosphoric acid, 100 mg sodium EDTA and 1.5 g heptanesulfonic acid. The flow rate was 1 ml/min.
# [1] = test system: ionotropic excitatory aminoacid receptors; conditions: preferentially acting at the glycine co-agonist site of the NMDA receptor; cited from earlier work
# [2] = test system: N-methyl-D-aspartate (NMDA) receptor; conditions: cited from earlier work
# neuronal cell cultures = conditions: relatively low QUIN concentrations; prolonged period of time or in combination with glutamate; cited from earlier work
# [3] = cited from earlier work
# T1 sequence (O88867 whole entry): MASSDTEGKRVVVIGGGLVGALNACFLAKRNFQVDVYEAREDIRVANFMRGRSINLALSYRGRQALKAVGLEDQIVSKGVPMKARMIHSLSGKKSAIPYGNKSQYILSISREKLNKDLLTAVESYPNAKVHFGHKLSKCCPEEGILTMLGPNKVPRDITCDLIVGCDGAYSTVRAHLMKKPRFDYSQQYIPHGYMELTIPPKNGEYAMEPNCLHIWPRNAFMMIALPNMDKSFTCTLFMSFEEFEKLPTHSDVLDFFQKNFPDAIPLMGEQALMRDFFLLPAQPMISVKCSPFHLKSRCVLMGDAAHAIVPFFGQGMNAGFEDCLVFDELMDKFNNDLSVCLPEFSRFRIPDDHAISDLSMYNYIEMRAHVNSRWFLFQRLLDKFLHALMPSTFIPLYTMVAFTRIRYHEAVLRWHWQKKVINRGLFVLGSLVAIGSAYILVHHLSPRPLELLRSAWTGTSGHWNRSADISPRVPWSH
smiles,measurement,setting,value
"O=C(CC(NC(=O)C(F)(F)F)C(=O)O)c1ccc(Cl)c(Cl)c1 (racemic) [FCE 29256, (R,S)-N-trifluoroacetyl-2-amino-4-oxo-4-(3',4'-dichlorophenyl)butanoic acid]",IC50,kynurenine-3-hydroxylase,0.14 µM
"O=C(O)c1cc(=O)c2ccccc2[nH]1 [KYNA, kynurenic acid]",antagonism at ionotropic excitatory aminoacid receptors (in words),[1],broad spectrum antagonist
"O=C(CC(NC(=O)C(F)(F)F)C(=O)O)c1ccc(F)c(F)c1 (racemic) [FCE 29434, (R,S)-N-trifluoroacetyl-2-amino-4-oxo-4-(3',4'-difluorophenyl)butanoic acid]",IC50,kynurenine-3-hydroxylase,0.27 µM
"O=C(C[C@H](NC(=O)C(F)(F)F)C(=O)O)c1ccc(Cl)c(Cl)c1 [FCE 29435, (S)-N-trifluoroacetyl-2-amino-4-oxo-4-(3',4'-dichlorophenyl)butanoic acid]",IC50,kynurenine-3-hydroxylase,0.24 µM
"O=C(O)c1cccnc1C(=O)O [QUIN, quinolinic acid]",agonism at NMDA receptor (in words),[2],highly selective agonist
same,neurotoxicity in neuronal cell cultures (in words),neuronal cell cultures,neurotoxic
same,effect in vivo (in words),[3],produce convulsions and axon sparing lesions
